{"source": "patent US20050112573A1", "about": "“Method of detecting toxic substance” (priority 2001, published 2005)", "tested_on": "yeast genes (level of expressed mRNA)", "test": "DNA chip analysis of expressed mRNA of yeast genes after 2 h culture with a toxic chemical substance", "assay_type": "cell-based, Saccharomyces cerevisiae S288C", "experimental": "Yeast (Saccharomyces cerevtisiae S288C (α SUC2mal mel gap2 CUP1)) were cultured at 25° C. on YPD medium (yeast extract 1%, polypepton 2%, glucose 2%). One of toxic chemical substances was added to the cell at logarithmic growth phase, and the cell was further cultured for two hours. Cell was cultured without any chemical substance in the same condition, and was used as control. Concentrations of the chemical substances were defined to inhibit the growth of the yeast but not lead to death.\nAfter the completion of cultivation, the culture was centrifuged to collect the cells. To the cells, sodium acetate buffer (50 mM sodium acetate, 10 mM EDTA, 1% SDS) was added, and the mixture was shaken at 65° C. for five minutes, followed by returning to room temperature, and obtaining the supernatant, which procedure was repeated two times. To the supernatant, ½ amount of a solution of phenol/chloroform was added, and the mixture was centrifuged to give a supernatant, which was added with an equal amount of chloroform, and the mixture was centrifuged to give a supernatant. To the supernatant, an equal amount of isopropanol containing 0.3 M sodium acetate was added, and the mixture was allowed to stand at room temperature for 30 minutes, after which the mixture was centrifuged to give a sediment of the whole RNAs. Seventy % ethanol was added to the sediment, and the mixture was again centrifuged to give a sediment, which was then dried and dissolved in water. mRNA was isolated from the whole RNAs as followings. In view of the fact that a poly A chain is attached to the 3′ terminus of mRNA, a polynucleotide having a poly T structure which was immobilized on the surface of latex beads was used to trap the mRNA, and then the mRNA was washed and eluted with spine column (Oligotex-dT30<Super>mRNA Purification Kit, Takara). Reverse transcription of the mRNA was conducted with a reverse transcriptase (Super Script II Reverse Transcriptase; catalogue No. 18064-014, GibcoBRL) using fluorescence-labeled nucleotides to give cDNAs that were introduced with Cy3-dUTP or Cy5-dUTP during the reverse transcription.\nThe labeled cDNAs were dissolved in TE buffer (10 mM Tris-HCl/1 mM EDTA, pH8.0), and the solution was dropped on the DNA chip containing the whole genes of yeast (DNA Chip Research Inc. Japan) so that the cDNAs were hybridized on the DNA chip at 65° C. for over 12 hours. The fluoresces intensity of the DNA chip was read with a scanner, and the ratio relative to the fluorescence intensity resulting from the absence of chemical substance was estimated as the following, which is shown in Tables 1 to 9: [formula]\nIn the Tables, “Intensity” indicated in the rightmost column is a value of the level of expressed mRNA of each gene in control cells as divided by the average level of the expressions of the whole genes."}
{"compound": "CN(C)C(=S)SSC(=S)N(C)C", "note": "[(10), Tetramethylthiuram disulfide]", "values": [{"measurement": "The level of expressed mRNA in the presence of chemical substance/The level of expressed mRNA in the absence of chemical substance", "setting": "yeast gene YAR010C", "result": 1.1}, {"measurement": "The level of expressed mRNA in the presence of chemical substance/The level of expressed mRNA in the absence of chemical substance", "setting": "yeast gene YBL005W-A", "result": 1.5}, {"measurement": "The level of expressed mRNA in the presence of chemical substance/The level of expressed mRNA in the absence of chemical substance", "setting": "yeast gene YBL041W", "result": 2.6}, {"measurement": "The level of expressed mRNA in the presence of chemical substance/The level of expressed mRNA in the absence of chemical substance", "setting": "yeast gene YBL043W", "result": 14.7}, {"measurement": "The level of expressed mRNA in the presence of chemical substance/The level of expressed mRNA in the absence of chemical substance", "setting": "yeast gene YBL078C", "result": 15.2}, {"measurement": "The level of expressed mRNA in the presence of chemical substance/The level of expressed mRNA in the absence of chemical substance", "setting": "yeast gene YBR214W", "result": 3.5}, {"measurement": "The level of expressed mRNA in the presence of chemical substance/The level of expressed mRNA in the absence of chemical substance", "setting": "yeast gene YCL020W", "result": 2.4}, {"measurement": "The level of expressed mRNA in the presence of chemical substance/The level of expressed mRNA in the absence of chemical substance", "setting": "yeast gene YCL027W", "result": 16.3}, {"measurement": "The level of expressed mRNA in the presence of chemical substance/The level of expressed mRNA in the absence of chemical substance", "setting": "yeast gene YCR004C", "result": 2.1}, {"measurement": "The level of expressed mRNA in the presence of chemical substance/The level of expressed mRNA in the absence of chemical substance", "setting": "yeast gene YCR071C", "result": 1.2}, {"measurement": "The level of expressed mRNA in the presence of chemical substance/The level of expressed mRNA in the absence of chemical substance", "setting": "yeast gene YCR088W", "result": 0.9}, {"measurement": "The level of expressed mRNA in the presence of chemical substance/The level of expressed mRNA in the absence of chemical substance", "setting": "yeast gene YDL008W", "result": 3.0}, {"measurement": "The level of expressed mRNA in the presence of chemical substance/The level of expressed mRNA in the absence of chemical substance", "setting": "yeast gene YDL238C", "result": 2.7}, {"measurement": "The level of expressed mRNA in the presence of chemical substance/The level of expressed mRNA in the absence of chemical substance", "setting": "yeast gene YDR055W", "result": 2.4}, {"measurement": "The level of expressed mRNA in the presence of chemical substance/The level of expressed mRNA in the absence of chemical substance", "setting": "yeast gene YDR084C", "result": 0.6}, {"measurement": "The level of expressed mRNA in the presence of chemical substance/The level of expressed mRNA in the absence of chemical substance", "setting": "yeast gene YDR085C", "result": 2.3}, {"measurement": "The level of expressed mRNA in the presence of chemical substance/The level of expressed mRNA in the absence of chemical substance", "setting": "yeast gene YDR104C", "result": 2.7}, {"measurement": "The level of expressed mRNA in the presence of chemical substance/The level of expressed mRNA in the absence of chemical substance", "setting": "yeast gene YDR115W", "result": 1.0}, {"measurement": "The level of expressed mRNA in the presence of chemical substance/The level of expressed mRNA in the absence of chemical substance", "setting": "yeast gene YDR259C", "result": 1.8}, {"measurement": "The level of expressed mRNA in the presence of chemical substance/The level of expressed mRNA in the absence of chemical substance", "setting": "yeast gene YDR315C", "result": 1.6}, {"measurement": "The level of expressed mRNA in the presence of chemical substance/The level of expressed mRNA in the absence of chemical substance", "setting": "yeast gene YDR358W", "result": 3.2}, {"measurement": "The level of expressed mRNA in the presence of chemical substance/The level of expressed mRNA in the absence of chemical substance", "setting": "yeast gene YDR388W", "result": 0.9}, {"measurement": "The level of expressed mRNA in the presence of chemical substance/The level of expressed mRNA in the absence of chemical substance", "setting": "yeast gene YDR432W", "result": 0.8}, {"measurement": "The level of expressed mRNA in the presence of chemical substance/The level of expressed mRNA in the absence of chemical substance", "setting": "yeast gene YDR481C", "result": 1.6}, {"measurement": "The level of expressed mRNA in the presence of chemical substance/The level of expressed mRNA in the absence of chemical substance", "setting": "yeast gene YDR510W", "result": 2.5}, {"measurement": "The level of expressed mRNA in the presence of chemical substance/The level of expressed mRNA in the absence of chemical substance", "setting": "yeast gene YEL042W", "result": 0.3}, {"measurement": "The level of expressed mRNA in the presence of chemical substance/The level of expressed mRNA in the absence of chemical substance", "setting": "yeast gene YEL066W", "result": 2.4}, {"measurement": "The level of expressed mRNA in the presence of chemical substance/The level of expressed mRNA in the absence of chemical substance", "setting": "yeast gene YER039C", "result": 0.8}, {"measurement": "The level of expressed mRNA in the presence of chemical substance/The level of expressed mRNA in the absence of chemical substance", "setting": "yeast gene YER107C", "result": 0.5}, {"measurement": "The level of expressed mRNA in the presence of chemical substance/The level of expressed mRNA in the absence of chemical substance", "setting": "yeast gene YER130C", "result": 1.3}, {"measurement": "The level of expressed mRNA in the presence of chemical substance/The level of expressed mRNA in the absence of chemical substance", "setting": "yeast gene YFL028C", "result": 1.8}, {"measurement": "The level of expressed mRNA in the presence of chemical substance/The level of expressed mRNA in the absence of chemical substance", "setting": "yeast gene YFL043C", "result": 3.8}, {"measurement": "The level of expressed mRNA in the presence of chemical substance/The level of expressed mRNA in the absence of chemical substance", "setting": "yeast gene YGL158W", "result": 0.9}, {"measurement": "The level of expressed mRNA in the presence of chemical substance/The level of expressed mRNA in the absence of chemical substance", "setting": "yeast gene YGL229C", "result": 1.7}, {"measurement": "The level of expressed mRNA in the presence of chemical substance/The level of expressed mRNA in the absence of chemical substance", "setting": "yeast gene YGR136W", "result": 2.2}, {"measurement": "The level of expressed mRNA in the presence of chemical substance/The level of expressed mRNA in the absence of chemical substance", "setting": "yeast gene YGR189C", "result": 0.9}, {"measurement": "The level of expressed mRNA in the presence of chemical substance/The level of expressed mRNA in the absence of chemical substance", "setting": "yeast gene YGR213C", "result": 6.9}, {"measurement": "The level of expressed mRNA in the presence of chemical substance/The level of expressed mRNA in the absence of chemical substance", "setting": "yeast gene YGR257C", "result": 1.9}, {"measurement": "The level of expressed mRNA in the presence of chemical substance/The level of expressed mRNA in the absence of chemical substance", "setting": "yeast gene YHR004C", "result": 0.6}, {"measurement": "The level of expressed mRNA in the presence of chemical substance/The level of expressed mRNA in the absence of chemical substance", "setting": "yeast gene YHR071W", "result": 7.2}, {"measurement": "The level of expressed mRNA in the presence of chemical substance/The level of expressed mRNA in the absence of chemical substance", "setting": "yeast gene YHR139C", "result": 46.6}, {"measurement": "The level of expressed mRNA in the presence of chemical substance/The level of expressed mRNA in the absence of chemical substance", "setting": "yeast gene YHR142W", "result": 0.9}, {"measurement": "The level of expressed mRNA in the presence of chemical substance/The level of expressed mRNA in the absence of chemical substance", "setting": "yeast gene YIL123W", "result": 0.2}, {"measurement": "The level of expressed mRNA in the presence of chemical substance/The level of expressed mRNA in the absence of chemical substance", "setting": "yeast gene YIL140W", "result": 0.6}, {"measurement": "The level of expressed mRNA in the presence of chemical substance/The level of expressed mRNA in the absence of chemical substance", "setting": "yeast gene YJL073W", "result": 0.7}, {"measurement": "The level of expressed mRNA in the presence of chemical substance/The level of expressed mRNA in the absence of chemical substance", "setting": "yeast gene YJL089W", "result": 3.9}, {"measurement": "The level of expressed mRNA in the presence of chemical substance/The level of expressed mRNA in the absence of chemical substance", "setting": "yeast gene YJL116C", "result": 2.6}, {"measurement": "The level of expressed mRNA in the presence of chemical substance/The level of expressed mRNA in the absence of chemical substance", "setting": "yeast gene YJR004C", "result": 0.7}, {"measurement": "The level of expressed mRNA in the presence of chemical substance/The level of expressed mRNA in the absence of chemical substance", "setting": "yeast gene YJR086W", "result": 1.1}, {"measurement": "The level of expressed mRNA in the presence of chemical substance/The level of expressed mRNA in the absence of chemical substance", "setting": "yeast gene YKL008C", "result": 0.4}]}
